Data: ChEMBL document CHEMBL1142119, “Cytotoxic alkylpiperidine alkaloids from the Brazilian marine sponge Pachychalina alcaloidifera” (J Nat Prod, 2007)

What was measured:
Assay type in all cases: cell-based
HL-60 = assay: Cytotoxicity against human HL60 cells by MTT assay
SF-295 = assay: Cytotoxicity against human SF295 cells by MTT assay
[1] = Cytotoxicity against human MDA-MB435 cells by MTT assay; conditions: mda-mb-435
HCT-8 = assay: Cytotoxicity against human HCT8 cells by MTT assay

## OC1/C=C\C=C/CCCCCC[C@H]2CN3CC/C=C\CCCCCCC4C[C@@H](CN(C1)C4)[C@H]2CC3 (stereo partly specified) [ARENOSCLERIN D]
HL-60
  Activity: 2.1 µg/mL
SF-295
  Activity: 5.9 µg/mL
[1]
  Activity: 1.2 µg/mL
HCT-8
  Activity: 6.2 µg/mL

## OC1\C=C/C=C/C=C/CC[C@H]2CN3CCCCCCCCCCCC[C@H]4C[C@H](CN(C1)C4)[C@@H]2CC3 (stereo partly specified)
HL-60
  Activity: 6.9 µg/mL
SF-295
  Activity: 8.7 µg/mL
[1]
  Activity: 3.1 µg/mL
HCT-8
  Activity: > 25 µg/mL

## O[C@H]1/C2=C\C/C=C/C=C\C=C/CCN3CC45CCCCCCCCCCCCN(CC1C4CC23)C5 (stereo partly specified) [MADANGAMINE F]
HL-60
  Activity: 16.7 µg/mL
SF-295
  Activity: 19.8 µg/mL
[1]
  Activity: 16.2 µg/mL
HCT-8
  Activity: > 25 µg/mL

## C1=C\CCCCC[C@H]2CN3CC/C=C\CCCCCC[C@@H]4C[C@@H](CN(CC/C=C\C/1)C4)[C@H]2CC3 [HALICLONACYCLAMINE F]
HL-60
  Activity: 2.2 µg/mL
SF-295
  Activity: 4.5 µg/mL
[1]
  Activity: 1 µg/mL
HCT-8
  Activity: 8.6 µg/mL
